Assay results from publication PMC12951562, “SH2scan: Mapping SH2 Domain-Ligand Binding Selectivity for Inhibitors and Degraders” (Journal of Medicinal Chemistry, 2026).
Like-named read-outs stand apart in the source and are kept apart here. Non-standard residues stand in square brackets, D forms with d. Residues, ends and D or L forms follow the SMILES beside them. *: point of attachment. pY = N[C@@H](Cc1ccc(OP(=O)(O)O)cc1)C(=O)O; Caffeoyl = O=C(/C=C/c1ccc(O)c(O)c1)*

Tests used:
Assay in all cases: biochemical
Type in all cases: binding
[1] = molecular target: T1, PLCG1(SH2dom.C-term.) (Homo sapiens, UniProt P19174); conditions: for remaining activity at 10 µM: read-out: percent of DMSO vehicle control
T1 construct: SH2dom.C-term. denotes SH2 domain closest to C-terminus of protein; made in house; host or cells: HEK293 (transient transfection, unpurified extract)
T1 sequence (P19174 668-756 limits assumed): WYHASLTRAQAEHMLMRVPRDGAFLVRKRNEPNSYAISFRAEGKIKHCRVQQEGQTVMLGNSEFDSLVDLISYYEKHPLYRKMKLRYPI

[2] = molecular target: T2, BLNK (Homo sapiens, UniProt Q8WV28); conditions: for remaining activity at 10 µM: read-out: percent of DMSO vehicle control
T2 construct: the DNA-tagged SH2 domain concentrations used in this study were <0.1 nM; made in house; host or cells: HEK293 (transient transfection; unpurified extract)
T2 sequence (Q8WV28 346-453 limits assumed): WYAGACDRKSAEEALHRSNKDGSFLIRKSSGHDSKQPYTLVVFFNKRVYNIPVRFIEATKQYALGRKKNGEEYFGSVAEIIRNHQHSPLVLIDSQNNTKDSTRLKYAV

[3] = molecular target: T3, SHB (Homo sapiens, UniProt Q15464); conditions: for remaining activity at 10 µM: read-out: percent of DMSO vehicle control
T3 construct: made in house; host or cells: HEK293 (transient transfection), unpurified extract
T3 sequence (Q15464 whole entry): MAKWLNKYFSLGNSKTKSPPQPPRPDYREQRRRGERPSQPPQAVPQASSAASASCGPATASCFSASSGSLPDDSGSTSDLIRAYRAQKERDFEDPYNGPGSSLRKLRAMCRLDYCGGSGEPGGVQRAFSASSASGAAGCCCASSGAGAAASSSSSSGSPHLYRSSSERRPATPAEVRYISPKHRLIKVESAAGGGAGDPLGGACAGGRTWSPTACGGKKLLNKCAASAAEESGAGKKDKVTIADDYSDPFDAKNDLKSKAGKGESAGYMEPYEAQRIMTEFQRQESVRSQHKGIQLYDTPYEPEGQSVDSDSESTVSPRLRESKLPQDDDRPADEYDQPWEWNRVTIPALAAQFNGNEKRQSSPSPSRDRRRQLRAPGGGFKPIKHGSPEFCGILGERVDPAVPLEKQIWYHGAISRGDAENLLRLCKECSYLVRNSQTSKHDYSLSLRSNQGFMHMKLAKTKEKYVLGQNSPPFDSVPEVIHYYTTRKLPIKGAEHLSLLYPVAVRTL

[4] = molecular target: T4, SHC3 (Homo sapiens, UniProt Q92529); conditions: for remaining activity at 10 µM: read-out: percent of DMSO vehicle control
T4 construct: made in house; host or cells: HEK293 (transient transfection), unpurified extract
T4 sequence (Q92529 1-594): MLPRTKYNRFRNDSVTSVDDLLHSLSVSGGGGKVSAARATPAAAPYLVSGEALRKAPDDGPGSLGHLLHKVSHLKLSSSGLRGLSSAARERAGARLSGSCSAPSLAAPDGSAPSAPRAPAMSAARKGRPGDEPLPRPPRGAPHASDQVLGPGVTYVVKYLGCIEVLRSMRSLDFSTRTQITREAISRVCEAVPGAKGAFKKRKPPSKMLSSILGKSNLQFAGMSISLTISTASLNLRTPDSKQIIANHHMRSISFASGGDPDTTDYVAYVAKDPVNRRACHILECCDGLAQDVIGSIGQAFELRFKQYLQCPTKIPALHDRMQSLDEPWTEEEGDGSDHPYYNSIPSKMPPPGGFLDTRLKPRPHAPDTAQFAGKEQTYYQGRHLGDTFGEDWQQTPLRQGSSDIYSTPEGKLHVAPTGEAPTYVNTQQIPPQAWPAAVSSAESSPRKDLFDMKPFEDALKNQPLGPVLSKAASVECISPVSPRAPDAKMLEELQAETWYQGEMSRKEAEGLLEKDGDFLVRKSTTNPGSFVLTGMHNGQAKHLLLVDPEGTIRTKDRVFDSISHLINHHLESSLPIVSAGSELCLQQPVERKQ

[5] = molecular target: T5, DAPP1 (Homo sapiens, UniProt Q9UN19); conditions: for percent of DMSO vehicle control at 10 µM / remaining activity at 10 µM: read-out: percent of DMSO vehicle control
T5 construct: the DNA-tagged SH2 domain concentrations used in this study were <0.1 nM; made in house; host or cells: HEK293 (transient transfection; unpurified extract)
T5 sequence (Q9UN19 35-129 limits assumed): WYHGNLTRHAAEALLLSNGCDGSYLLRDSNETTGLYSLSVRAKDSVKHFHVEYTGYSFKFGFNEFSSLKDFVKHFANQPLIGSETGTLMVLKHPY

[6] = molecular target: T6, SHC4 (Homo sapiens, UniProt Q6S5L8); conditions: for remaining activity at 10 µM: read-out: percent of DMSO vehicle control
T6 construct: made in house; host or cells: HEK293 (transient transfection), unpurified extract
T6 sequence (Q6S5L8 1-630): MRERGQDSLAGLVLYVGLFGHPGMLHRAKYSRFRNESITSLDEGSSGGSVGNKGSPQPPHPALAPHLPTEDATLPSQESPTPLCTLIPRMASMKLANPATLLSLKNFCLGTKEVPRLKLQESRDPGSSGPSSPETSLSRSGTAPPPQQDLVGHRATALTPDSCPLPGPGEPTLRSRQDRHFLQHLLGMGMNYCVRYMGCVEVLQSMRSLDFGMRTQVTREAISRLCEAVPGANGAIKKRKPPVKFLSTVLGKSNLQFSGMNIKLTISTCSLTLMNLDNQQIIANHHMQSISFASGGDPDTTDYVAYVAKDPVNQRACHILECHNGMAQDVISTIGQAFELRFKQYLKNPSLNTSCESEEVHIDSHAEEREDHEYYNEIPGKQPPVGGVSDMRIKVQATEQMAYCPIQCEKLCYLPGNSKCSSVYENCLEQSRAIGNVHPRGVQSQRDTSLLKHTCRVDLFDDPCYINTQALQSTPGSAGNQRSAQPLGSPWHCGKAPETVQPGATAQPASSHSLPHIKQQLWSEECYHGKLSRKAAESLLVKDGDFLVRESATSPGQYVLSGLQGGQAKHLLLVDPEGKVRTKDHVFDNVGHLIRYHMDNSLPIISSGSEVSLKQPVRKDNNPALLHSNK

| SMILES | remaining activity at 10 µM [1] [%] | remaining activity at 10 µM [2] [%] | remaining activity at 10 µM [3] [%] | remaining activity at 10 µM [4] [%] | percent of DMSO vehicle control at 10 µM [5] [%] | remaining activity at 10 µM [6] [%] | remaining activity at 10 µM ([1]; primary screen, 10 μM) [%] | remaining activity at 10 µM ([2]; primary screen, 10 μM) [%] | remaining activity at 10 µM ([3]; primary screen, 10 μM) [%] | remaining activity at 10 µM ([4]; primary screen, 10 μM) [%] | remaining activity at 10 µM ([5]; primary screen, 10 μM) [%] | remaining activity at 10 µM ([6]; primary screen, 10 μM) [%] | further results |
| --- | --- | --- | --- | --- | --- | --- | --- | --- | --- | --- | --- | --- | --- |
| CC[C@H](C)[C@H](NC(=O)[C@H](CCC(=O)O)NC(=O)[C@H](CCC(=O)O)NC(=O)[C@H](Cc1ccc(OP(=O)(O)O)cc1)NC(C)=O)C(=O)N[C@@H](CCC(=O)O)C(N)=O [Ac-pYEEIE-NH2] (Ac-[pY]EEIE-NH2) | – | – | – | – | – | – | – | – | – | – | – | – | percent of DMSO vehicle control ([1]; primary screen, 10 μM): 37.9±3.6%; percent of DMSO vehicle control ([2]; primary screen, 10 μM): 118.9%; percent of DMSO vehicle control ([3]; primary screen, 10 μM): 117.6%; percent of DMSO vehicle control ([4]; primary screen, 10 μM): 98.9±6.8%; percent of DMSO vehicle control ([5]; primary screen, 10 μM): 134.5%; percent of DMSO vehicle control ([6]; primary screen, 10 μM): 119.5% |
| CC(=O)N[C@@H](Cc1ccc(CP(=O)(O)O)cc1)C(=O)NC1(C(=O)N[C@@H](CC(N)=O)C(=O)NCCCc2c(O)ccc3ccccc23)CCCCC1 [CGP78850] | 96.8 ± 4.1 | 117 ± 7.1 | 97.4 ± 9.4 | 29.2 ± 2.8 | 136 ± 2.8 | 108 ± 7.4 | – | – | – | – | – | – | Kd [4]: 1800 ± 240 nM |
| CC[C@H](C)[C@H](NC(=O)[C@H](CCC(=O)O)NC(=O)[C@H](CCC(=O)O)NC(=O)[C@H](Cc1ccc(OP(=O)(O)O)cc1)NC(=O)/C=C/c1ccc(O)c(O)c1)C(=O)N[C@@H](CCC(=O)O)C(=O)O [Caffeic acid-pYEEIE] (Caffeoyl-[pY]EEIE-OH) | 0 | 3.2 ± 0.6 | 1.8 ± 0.1 | 0 | 39.2 ± 3.2 | 0 | – | – | – | – | – | – | Kd [1]: 14 ± 11 nM; Kd [2]: 240 ± 24 nM; Kd [3]: 1200 ± 530 nM; Kd [4]: 130 ± 120 nM; Kd [6]: 39 ± 6.1 nM |
| O=C(CCl)Nc1cccc(CNC(=O)[C@H](Cc2ccc(OP(=O)(O)O)cc2)NC(=O)Cc2ccc(F)cc2)c1 [MN551] | – | – | – | – | – | – | 64.1 ± 4.5 | 101 | 102 | 91.2 ± 1.9 | 81.2 | 93 ± 4.4 | – |
| NC(=O)CC[C@H](NC(=O)[C@@H]1CC[C@@H]2CCN(C(=O)CCCCCC#Cc3cccc4c3CN(C3CCC(=O)NC3=O)C4=O)C[C@H](NC(=O)c3cc4cc(C(F)(F)P(=O)(O)O)ccc4[nH]3)C(=O)N21)C(=O)NC(c1ccccc1)c1ccccc1 (stereo partly shown) [SD-36] | 85.7 ± 0.8 | 104 | 87.7 ± 2.3 | 74.5 ± 0.8 | 126 | 100 ± 4.5 | – | – | – | – | – | – | – |
| CC(=O)N1CC[C@H]2CC[C@@H](C(=O)N[C@@H](CCC(N)=O)C(=O)NC(c3ccccc3)c3ccccc3)N2C(=O)[C@@H](NC(=O)c2cc3cc(C(F)(F)P(=O)(O)O)ccc3[nH]2)C1 [SI-109] | 98 ± 1.4 | 117 | 129 | 122 | 149 | 136 | – | – | – | – | – | – | – |
| C/C(=C\C(=O)N[C@H](C(=O)N1CCC[C@H]1C(=O)N(c1ccccc1)c1ccc(I)cc1)C(C)(C)C)c1ccc(OP(=O)(O)O)cc1 [STAT6-IN-1] | – | – | – | – | – | – | 1.5 ± 2.1 | 116 ± 19.9 | 28.7 ± 0.4 | 35.3 ± 4.8 | 41.1 ± 13.9 | 77.1 ± 7.5 | Kd ([1]; dose-response, read-out: KD): 2050 ± 210 nM; KD ([3]; dose-response): No Hit; Kd ([4]; dose-response, read-out: KD): 3600 ± 570 nM |
| CC(C)(C)[C@H](NC(=O)/C=C/c1ccc(OP(=O)(O)O)cc1)C(=O)N1CCC[C@H]1C(=O)N(c1ccccc1)c1ccc(I)cc1 [STAT6-IN-3] | – | – | – | – | – | – | 24.7 ± 7 | 145 ± 22.5 | 53.4 ± 23.5 | 50.6 ± 6.4 | 58.9 ± 43.2 | 90.2 ± 12 | Kd ([1]; dose-response, read-out: KD): 3800 ± 280 nM |
| O=C(COc1ccc2cc(C(=O)Nc3ccccc3)ccc2c1)NCc1ccc(OP(=O)(O)O)c(OP(=O)(O)O)c1 [Stafib-1] | – | – | – | – | – | – | 78.8 ± 17.8 | 158 | 114 | 87 ± 14.4 | 100 | 103 | – |
